# Reference: ChEMBL document CHEMBL6178015, “Discovery of a Novel Serine-Targeting Covalent Inhibitor against HCES2A for Treating Drug-induced Diarrhea and Ulcerative Colitis” (J Med Chem, 2025)
# The source made the active and inactive calls. No cut-off for these calls is given here.
# Key:
# [1] = Inhibition of human CES2A using fluorescein diacetate as substrate preincubated for 3 mins followed by substrate addition and measured after 30 mins by fluorescence microplate reader
# [2] = tested on: Mus musculus; test: Reversal of irinotecan-induced gut toxicity in C57BL/6J mouse bearing MC38 cells assessed as amelioration of inflammatory cell infiltration loss at 30 to 60 mg/kg,po administered daily and measured after 14 days by H and E staining based analysis; assay type: functional, organism-based; conditions: dose 30-60 mg/kg, time 14.0 day
# [3] = Inhibition of human CES2A in HepG2 cells incubated for 1 hrs by NCEN and Hoechst 33342 staining based assay; assay type: cell-based
# [4] = tested on: Mus musculus; test: Reversal of irinotecan-induced gut toxicity in C57BL/6J mouse bearing MC38 cells assessed as restoration of TNF-alpha levels in colon tissues at 30 to 60 mg/kg,po administered daily and measured after 14 days by ELISA; assay type: functional, organism-based; conditions: dose 30-60 mg/kg, time 14.0 day
# [5] = tested on: Mus musculus; test: Antiinflammatory activity against DSS-induced ulcerative colitis mouse model assessed as restoration of IL-6 levels in colon tissues at 30 to 60 mg/kg,IG administered once daily 7 days by ELISA; assay type: functional, organism-based; conditions: dose 30-60 mg/kg, time 7.0 day
# [6] = tested on: Mus musculus; test: Antiinflammatory activity against DSS-induced ulcerative colitis mouse model assessed as preservation of colonic mucosal structure at 30 to 60 mg/kg,IG administered once daily 7 days by H and E staining based analysis; assay type: functional, organism-based; conditions: dose 30-60 mg/kg, time 7.0 day
# [7] = tested on: Mus musculus; test: Antiinflammatory activity against DSS-induced ulcerative colitis mouse model assessed as upregulation of claudin-1 expression in colon tissues at 700 mg/kg,IG administered once daily 7 days by immunohistochemical analysis; assay type: functional, organism-based; conditions: time 7.0 day
# [8] = tested on: Mus musculus; test: Antiinflammatory activity against DSS-induced ulcerative colitis mouse model assessed as alleviation in body weight loss at 30 to 60 mg/kg,IG administered once daily 7 days; assay type: functional, organism-based; conditions: dose 30-60 mg/kg, time 7.0 day
# [9] = tested on: Mus musculus; test: Reversal of irinotecan-induced gut toxicity in C57BL/6J mouse bearing MC38 cells assessed as effect on tumor weight at 30 to 60 mg/kg,po administered daily and measured after 14 days; assay type: functional, organism-based; conditions: dose 30-60 mg/kg, time 14.0 day
# [10] = species: Homo sapiens; test: Irreversible inhibition of human CES2A at 0.02 nM preincubated for 33 mins and measured after 8 hrs dialysis by fluorescence microplate reader; conditions: time 513.0 min
# [11] = tested on: Mus musculus; test: Reversal of irinotecan-induced gut toxicity in C57BL/6J mouse bearing MC38 cells assessed as reduction in diarrhea at 30 to 60 mg/kg,po administered daily and measured after 14 days; assay type: functional, organism-based; conditions: dose 30-60 mg/kg, time 14.0 day
# [12] = tested on: Mus musculus; test: Reversal of irinotecan-induced gut toxicity in C57BL/6J mouse bearing MC38 cells assessed as effect on tumor volume at 30 to 60 mg/kg,po administered daily and measured after 14 days; assay type: functional, organism-based; conditions: dose 30-60 mg/kg, time 14.0 day
# [13] = tested on: Mus musculus; test: Reversal of irinotecan-induced gut toxicity in C57BL/6J mouse bearing MC38 cells assessed as increase in claudin-1 expression level in colon tissues at 30 to 60 mg/kg,po administered daily and measured after 14 days by immunohistochemical analysis; assay type: functional, organism-based; conditions: dose 30-60 mg/kg, time 14.0 day
# [14] = Irreversible inhibition of human CES2A using fluorescein diacetate as substrate preincubated for 3 mins followed by substrate addition by fluorescence microplate reader
# [15] = tested on: Mus musculus; test: Antiinflammatory activity against DSS-induced ulcerative colitis mouse model assessed as restoration of TNF-alpha levels in colon tissues at 30 to 60 mg/kg,IG administered once daily 7 days by ELISA; assay type: functional, organism-based; conditions: dose 30-60 mg/kg, time 7.0 day
# [16] = tested on: Mus musculus; test: Reversal of irinotecan-induced gut toxicity in C57BL/6J mouse bearing MC38 cells assessed as amelioration of goblet cell apoptosis at 30 to 60 mg/kg,po administered daily and measured after 14 days by H and E staining based analysis; assay type: functional, organism-based; conditions: dose 30-60 mg/kg, time 14.0 day
# [17] = tested on: Mus musculus; test: Reversal of irinotecan-induced gut toxicity in C57BL/6J mouse bearing MC38 cells assessed as increase in ZO-1 expression level in colon tissues at 30 to 60 mg/kg,po administered daily and measured after 14 days by immunohistochemical analysis; assay type: functional, organism-based; conditions: dose 30-60 mg/kg, time 14.0 day
# [18] = tested on: Mus musculus; test: Reversal of irinotecan-induced gut toxicity in C57BL/6J mouse bearing MC38 cells assessed as weight recovery at 30 to 60 mg/kg,po administered daily and measured after 14 days; assay type: functional, organism-based; conditions: dose 30-60 mg/kg, time 14.0 day
# [19] = Irreversible inhibition of human CES2A assessed as inhibition constant incubated for 5 to 30 mins
# [20] = tested on: Mus musculus; test: Antiinflammatory activity against DSS-induced ulcerative colitis mouse model assessed as upregulation of ZO-1 expression in colon tissues at 700 mg/kg,IG administered once daily 7 days by immunohistochemical analysis; assay type: functional, organism-based; conditions: time 7.0 day
# [21] = tested on: Mus musculus; test: Reversal of irinotecan-induced gut toxicity in C57BL/6J mouse bearing MC38 cells assessed as restoration of IL-6 levels in colon tissues at 30 to 60 mg/kg,po administered daily and measured after 14 days by ELISA; assay type: functional, organism-based; conditions: dose 30-60 mg/kg, time 14.0 day
# [22] = Inhibition of human CES1A using NLMe as substrate preincubated for 3 mins followed by substrate addition and measured after 20 mins by chemiluminescence analysis
# [23] = tested on: Mus musculus; test: Antiinflammatory activity against DSS-induced ulcerative colitis mouse model assessed as inhibition of colon contracture at 30 to 60 mg/kg,IG administered once daily 7 days; assay type: functional, organism-based; conditions: dose 30-60 mg/kg, time 7.0 day
# [24] = tested on: Mus musculus; test: Antiinflammatory activity against DSS-induced ulcerative colitis mouse model assessed as decrease in DAI score at 30 to 60 mg/kg,IG administered once daily 7 days; assay type: functional, organism-based; conditions: dose 30-60 mg/kg, time 7.0 day
# [25] = tested on: Mus musculus; test: Reversal of irinotecan-induced gut toxicity in C57BL/6J mouse bearing MC38 cells assessed as reduction in colon shortening at 30 to 60 mg/kg,po administered daily and measured after 14 days; assay type: functional, organism-based; conditions: dose 30-60 mg/kg, time 14.0 day
# [26] = tested on: Mus musculus; test: Reversal of irinotecan-induced gut toxicity in C57BL/6J mouse bearing MC38 cells assessed as amelioration of epithelial crypts loss at 30 to 60 mg/kg,po administered daily and measured after 14 days by H and E staining based analysis; assay type: functional, organism-based; conditions: dose 30-60 mg/kg, time 14.0 day
# [27] = target: hERG (KCNH2) (Homo sapiens, UniProt Q12809); test: Inhibition of hERG expressed in HEK293 cells at 10 uM relative to control; assay type: toxicity, cell-based; conditions: HEK293 cells that express hERG
# Chain of hERG (KCNH2) (Q12809 whole entry): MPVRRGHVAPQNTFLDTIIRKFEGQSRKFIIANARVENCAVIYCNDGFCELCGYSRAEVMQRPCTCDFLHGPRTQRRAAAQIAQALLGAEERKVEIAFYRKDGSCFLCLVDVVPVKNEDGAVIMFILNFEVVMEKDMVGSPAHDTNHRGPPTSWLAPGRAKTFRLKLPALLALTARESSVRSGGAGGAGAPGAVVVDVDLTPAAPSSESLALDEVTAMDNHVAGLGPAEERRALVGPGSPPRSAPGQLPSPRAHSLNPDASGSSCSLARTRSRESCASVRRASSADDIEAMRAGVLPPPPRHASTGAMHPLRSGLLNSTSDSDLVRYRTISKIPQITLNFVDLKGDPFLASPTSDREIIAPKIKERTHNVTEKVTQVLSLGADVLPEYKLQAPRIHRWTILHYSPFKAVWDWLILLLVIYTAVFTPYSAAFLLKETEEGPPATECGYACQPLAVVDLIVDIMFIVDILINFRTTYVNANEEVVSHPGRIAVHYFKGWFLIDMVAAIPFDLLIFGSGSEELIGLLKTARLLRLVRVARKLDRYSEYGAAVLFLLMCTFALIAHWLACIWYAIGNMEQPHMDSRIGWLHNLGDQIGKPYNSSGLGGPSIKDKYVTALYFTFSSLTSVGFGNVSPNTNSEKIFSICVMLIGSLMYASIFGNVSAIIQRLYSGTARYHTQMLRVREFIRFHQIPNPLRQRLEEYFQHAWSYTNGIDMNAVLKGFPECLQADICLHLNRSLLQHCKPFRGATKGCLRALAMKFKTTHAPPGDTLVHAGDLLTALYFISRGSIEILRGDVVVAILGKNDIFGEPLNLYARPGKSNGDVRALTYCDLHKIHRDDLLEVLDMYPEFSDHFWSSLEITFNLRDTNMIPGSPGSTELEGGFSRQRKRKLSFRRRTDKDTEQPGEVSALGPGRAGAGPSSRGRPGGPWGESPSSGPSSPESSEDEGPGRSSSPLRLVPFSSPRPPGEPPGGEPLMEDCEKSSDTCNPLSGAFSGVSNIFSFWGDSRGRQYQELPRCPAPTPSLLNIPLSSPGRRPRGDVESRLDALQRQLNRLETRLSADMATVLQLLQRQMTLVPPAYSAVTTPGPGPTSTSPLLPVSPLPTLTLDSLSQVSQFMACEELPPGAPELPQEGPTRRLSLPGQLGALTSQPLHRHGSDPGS
# [28] = target: Voltage-gated inwardly rectifying potassium channel KCNH2 (Homo sapiens, UniProt Q12809); test: Inhibition of hERG expressed in HEK293 cells; assay type: toxicity, cell-based
# Chain of Voltage-gated inwardly rectifying potassium channel KCNH2 (Q12809 whole entry): as above
# [29] = tested on: Mus musculus; test: Antiinflammatory activity against DSS-induced ulcerative colitis mouse model assessed as reduction in crypt destruction in colon tissues at 30 to 60 mg/kg,IG administered once daily 7 days by H and E staining based analysis; assay type: functional, organism-based; conditions: dose 30-60 mg/kg, time 7.0 day
# [30] = species: Homo sapiens; test: Selectivity index, ratio of IC50 for inhibition of human CES1A to IC50 for inhibition of human CES2A
# [31] = tested on: Mus musculus; test: Antiinflammatory activity against DSS-induced ulcerative colitis mouse model assessed as restoration of colon histology at 700 mg/kg,IG administered once daily 7 days by AB-PAS staining based analysis; assay type: functional, organism-based; conditions: time 7.0 day
# [32] = tested on: Mus musculus; test: Reversal of irinotecan-induced gut toxicity in C57BL/6J mouse bearing MC38 cells assessed as restoration of IL-1beta levels in colon tissues at 30 to 60 mg/kg,po administered daily and measured after 14 days by ELISA; assay type: functional, organism-based; conditions: dose 30-60 mg/kg, time 14.0 day
# [33] = tested on: HepG2; test: Inhibition of human CES2A in HepG2 cells assessed as decrease in green fluorescence at 5 to 60 nM incubated for 1 hrs by NCEN and Hoechst 33342 staining based assay; assay type: cell-based; conditions: dose 5-60 nM
# [34] = tested on: Mus musculus; test: Antiinflammatory activity against DSS-induced ulcerative colitis mouse model assessed as upregulation of occludin expression in colon tissues at 700 mg/kg,IG administered once daily 7 days by immunohistochemical analysis; assay type: functional, organism-based; conditions: time 7.0 day
# [35] = species: Homo sapiens; test: Irreversible inhibition of human CES2A assessed as inactivation constant incubated for 5 to 30 mins; conditions: time 5-30 min
# [36] = Irreversible inhibition of human CES2A using fluorescein diacetate as substrate preincubated for 33 mins followed by substrate addition by fluorescence microplate reader
# [37] = tested on: Mus musculus; test: Antiinflammatory activity against DSS-induced ulcerative colitis mouse model assessed as reduction in inflammatory infiltration in lamina propria at 30 to 60 mg/kg,IG administered once daily 7 days by H and E staining based analysis; assay type: functional, organism-based; conditions: dose 30-60 mg/kg, time 7.0 day
# [38] = species: Homo sapiens; test: Potency index, ratio of LC-20W IC50 to test compound IC50 for inhibition of human CES2A using fluorescein diacetate as substrate
# [39] = tested on: Mus musculus; test: Reversal of irinotecan-induced gut toxicity in C57BL/6J mouse bearing MC38 cells assessed as change in tumor size at 30 to 60 mg/kg,po administered daily and measured after 14 days; assay type: functional, organism-based; conditions: dose 30-60 mg/kg, time 14.0 day
# [40] = tested on: Mus musculus; test: Antiinflammatory activity against DSS-induced ulcerative colitis mouse model assessed as restoration of IL-1beta levels in colon tissues at 30 to 60 mg/kg,IG administered once daily 7 days by ELISA; assay type: functional, organism-based; conditions: dose 30-60 mg/kg, time 7.0 day
compound,measurement,setting,value
CCCCCCCCC(=O)c1cccc2oc(-c3cc(OC)ccc3OC(=O)N(CC)CC)cc12,IC50,[1],6.37 nM
CCCCCCCCC(=O)c1cccc2oc(-c3cc(OC)ccc3OC(=O)N3CCCC3)cc12,Activity,[2],Active
same,IC50,[3],19.6 nM
same,Activity,[4],Active
same,Activity,[5],Active
same,IC50,[1],0.118 nM
same,Activity,[6],Active
same,Activity,[7],Active
same,Activity,[8],Active
same,Activity,[9],inactive
same,inhibition,[10],Active
same,Activity,[11],Active
same,Activity,[12],Active
same,Activity,[13],Active
same,IC50,[14],0.12 nM
same,Activity,[15],Active
same,Activity,[16],Active
same,Activity,[17],Active
same,Activity,[18],Active
same,Ki,[19],0.43 nM
same,Activity,[20],Active
same,Activity,[21],Active
same,IC50,[22],6.95 nM
same,Activity,[23],Active
same,Activity,[24],Active
same,Activity,[25],Active
same,Activity,[26],Active
same,inhibition at 10 µM,[27],14.6%
same,IC50,[28],> 10000 nM
same,Activity,[29],Active
same,Ratio IC50,[30],59
same,Activity,[31],Active
same,Activity,[32],Active
same,inhibition,[33],Active
same,Activity,[34],Active
same,Kinact,[35],0.052 min⁻¹
same,IC50,[36],0.028 nM
same,Activity,[37],Active
same,Ratio IC50,[38],13
same,Activity,[39],inactive
same,Activity,[40],Active
CCCCCCC(=O)c1cccc2oc(-c3ccccc3NC(=O)OCCCC)cc12,IC50,[1],1260 nM
CCCCCCC(=O)c1cccc2oc(-c3cc(C)ccc3NC(=O)OCC(CC)CCCC)cc12 (stereo not drawn),IC50,[1],4260 nM
CCCCCCC(=O)c1cccc2oc(-c3ccccc3N)cc12,IC50,[1],944 nM
CCCCCCC(=O)c1cccc2oc(-c3cc(OC)ccc3OC(=O)N3CCCC3)cc12,IC50,[1],0.249 nM
same,IC50,[22],5.65 nM
same,Ratio IC50,[30],22.7
C=CCOC(=O)Nc1ccccc1-c1cc2c(C(=O)CCCCCC)cccc2o1,IC50,[1],596 nM
